# Reference: a melting point compilation (Tetko et al.; mined from patent text by program, amines drawn as free bases though some values may be those of a salt)
# Residues, ends and D or L forms follow the SMILES beside them. *: point of attachment. Boc = CC(C)(C)OC(=O)*; OBn = c1ccc(CO*)cc1; Bn = c1ccc(C*)cc1
row,Structure (SMILES),melting point
1,Cc1c(C(=O)O)oc2c(c1=O)CSc1ccccc1-2,299 to 301 °C
2,CC(C)Oc1n[nH]cc1C(=O)NCc1ccc(Cl)cc1Cl,185 to 186 °C
3,Cc1cc(-c2cc(C(F)F)n3ncc(C(=O)Nc4cccc(S(N)(=O)=O)c4)c3n2)ccc1C(F)(F)F,252 °C
4,CCOC(c1cccc2cccnc12)n1c(NC2CCN(C(CN)C(C)C)CC2)nc2ccccc21 (stereo not drawn),202 °C
5,Nc1ncccc1-c1nc2ccc(-c3cn[nH]c3)nc2n1-c1ccc(CNC(=O)c2cccc(F)c2)cc1,267 to 269 °C
6,CCn1c(Cl)nc2cc(C(F)(F)F)c(Cl)c(N)c21,134 to 142 °C
7,O=C(CCCOc1ccc2nc3[nH]c(=O)[nH]c3cc2c1)NC1CCCC1,> 320 °C
8,COc1nc(NS(=O)(=O)c2ccccc2Cl)nc(OC)n1,137 °C
9,CC(Oc1ccccc1Cl)C(=O)OC1CC(O)C=C2C=CC(C)C(CCC3CC(O)CC(=O)O3)C21 (mixture of isomers),152 to 155 °C
10,CCNc1nc(=S)n(Cc2ccc(OC)c(OC3CCCC3)c2)c2nc(C(C)C)[nH]c12,72 to 77 °C
11,CCCc1c(COc2ccc(C(=O)c3cccc(-c4nnn[nH]4)c3)cc2)ccc(C(C)=O)c1O,208 to 214 °C
12,N#Cc1nnc2n1-c1ccc(Cl)cc1C(c1ccccc1)=NC2,191 to 192 °C
13,C[Si](C)(C)CCOC1OC(CO)C(O)C(O)C1N=[N+]=[N-] (stereo not drawn),158 to 161 °C
14,CNC(=O)N1N=C(c2ccc([N+](=O)[O-])c(C)c2)c2cc(Cl)ccc2C=C1C,196 to 198 °C
15,O=C1Nc2cnc(Nc3ccc(N4CCOCC4)cc3)nc2S/C1=C/c1ccc([N+](=O)[O-])cc1,302 to 304 °C
16,Fc1ccc(-c2ncn(C3CCCCO3)c2-c2ccc(F)cc2)cc1 (stereo not drawn),149 to 152 °C
17,OC1CCSC(=S)N1c1ccccn1 (stereo not drawn),120 °C
18,CC(=O)CCCCC(=O)Nc1ccccc1,85.5 to 86.5 °C
19,CCOC(=O)Cc1nnnn1C,64 to 66 °C
20,Clc1cc(Cl)c2ocnc2c1,98 to 99 °C
21,N#Cc1ccc(C=C2CCCN(C(=O)c3ccc(Cl)cc3)C2)cc1,> 210 °C
22,COc1cc2c(cc1C(C)(C)C)CCC2Cc1c[nH]cn1 (stereo not drawn),174 to 184 °C
23,COc1cc(CNC(=O)c2nc3sccc3c(=O)[nH]2)ccc1Br,196 to 198 °C

row,Structure (SMILES),melting point
1,O=[N+]([O-])c1[nH]c(-c2c(Cl)cc(C(F)(F)F)cc2Cl)nc1Br,292 to 293 °C
2,CCCC[C@H](NC(=O)[C@H](CC(C)C)NC(=O)c1c(F)cccc1C(F)(F)F)C(=O)CSCc1ccco1,106 to 107 °C
3,Cc1cc(C(=O)Nc2c(C)cccc2O)c(Br)s1,164 to 167 °C
4,COC(=O)c1ccc(SC)c([N+](=O)[O-])c1,118 to 120 °C
5,CCOC(=O)c1ccc(C(=O)Nc2ccc3c(c2)N(C)C(=O)CCC3(C)C)cc1,174 to 175 °C
6,CC1(C)SC(c2ccc(O)cc2)NC1C(=O)O (stereo not drawn),207 to 209 °C
7,OCCC(CCS)c1ccncc1 (stereo not drawn),50 to 52 °C
8,CN(C)CC1CNc2cc(O)ccc2C1 (stereo not drawn),151 to 152 °C
9,CNC1C(O)CC2C3CCC4CC(O)CCC4(C)C3CCC21C (stereo not drawn),241 to 253 °C
10,N#Cc1nn(-c2c(Cl)cc(C(F)(F)F)cc2Cl)c(N)c1C1(C(F)(F)F)CC1,178 to 179 °C
11,CCOC(=O)C(=O)Nc1c([N+](=O)[O-])cc(Cl)cc1C(F)(F)F,100 to 101 °C
12,CCN(c1c(Cl)c(C(F)(F)F)cc2[nH]c(=O)c(=O)[nH]c12)S(C)(=O)=O,> 300 °C
13,C#CCOc1cc(C(=O)OC)ccc1F,60.5 to 61.5 °C
14,COC(=O)c1cc2c(cc1O)CCCC2,41 to 42 °C
15,CCOc1ccc(C(=O)NCc2ccc3c(c2)C(=O)N(C2(C)CCC(=O)NC2=O)C3=O)cc1 (stereo not drawn),163 to 165 °C
16,COc1ccc(S(=O)(=O)N2CC3CCC(CC3)C2)c2ccccc12,168 to 170 °C
17,N#CC1CN1C(=O)NC(=O)C=Cc1ccccc1 (stereo not drawn),134 to 136 °C
18,CCCCc1ncc(CSc2ncccc2C(=O)O)n1Cc1ccc(C(=O)O)cc1,155 to 157 °C
19,COc1ccc2cc3c(CN)nn(C)c3nc2c1,119 to 120 °C
20,CC1CC2C3CCC4=CC(=O)C=CC4(C)C3=CCC2(C)C1C(=O)CN1CCN(c2cc(N3CCCC3)nc(NC34CC5CC(CC(C5)C3)C4)n2)CC1 (stereo not drawn),155 to 172 °C
21,CCCCc1oc2ccc(C(=O)OC)cc2c1C(=O)c1ccc(OCCCNCC(C)(C)C)cc1,61 to 63 °C
22,COc1ccc(OCC#N)c(SCC#N)c1,53 to 54 °C
23,Oc1ccccc1Nc1cc[nH]n1,163 to 164 °C

row,Structure (SMILES),melting point
1,Cc1nc2nc3cc(Cl)ccc3nc2[nH]1,> 300 °C
2,CC(=O)Oc1ccc(-c2nc3c(N)nc(N)nc3nc2N)cc1,319 to 321 °C
3,CCOC(=O)CNc1ccccc1C(N)=O,147 to 148 °C
4,CC1(C)C=C(N2CCNCC2=O)c2cnccc2O1,109 to 110 °C
5,CC(=O)Nc1cccc(C=O)c1C,160 °C
6,CC(=O)NC[C@H]1CN(c2ccc(-n3cc(-c4ccncc4)cn3)c(F)c2)C(=O)O1,204 to 205 °C
7,CN(C)C1(c2cccc(F)c2)CCC(=CC(=O)NCCCc2ccccc2)CC1 (stereo not drawn),129 to 131 °C
8,O=C1CCCCC1C(C[N+](=O)[O-])c1ccc(Cl)cc1 (racemic),96 to 97 °C
9,COC(=O)c1ccc(OCCON=C(C)c2ccc(C(C)(C)C)cc2)cc1O,65.4 to 66.8 °C
10,CC(=O)Nc1cc(O)c(C(=O)CCCCCl)cc1Cl,126 to 128 °C
11,COc1cc(OC)c(C(=O)c2cc(Cl)ccc2NC(C)=O)c(OC)c1,159 to 160 °C
12,CN=C(NC#N)NCCSCc1ncccc1Br,114 to 116 °C
13,CC(NC(=O)C(Cc1ccc(OCc2ccccc2)cc1)NC(=O)OC(C)(C)C)C(=O)NCC(=O)OCc1ccccc1 (stereo not drawn) (Boc-Tyr(Bn)-Ala-Gly-OBn; configuration not given here),145 to 147 °C
14,O=C(O)CNC(=O)C(c1ccccc1)c1ccccc1,113 to 115 °C
15,CC(c1cccc2c1Sc1c(O[Si](c3ccccc3)(c3ccccc3)C(C)(C)C)cccc1N2C)N1C(=O)c2ccccc2C1=O (stereo not drawn),182 to 184 °C
16,O=C(c1ccc(-c2ccc3nnn(Cc4ccc5ncccc5c4)c3n2)cc1)N1CCN(CCO)CC1,158 to 160 °C
17,CS(=O)(=O)C(=C1CN(C(c2ccc(Cl)cc2)c2ccc(Cl)cc2)C1)c1cccc(SC(F)(F)F)c1,70 °C
18,O=C(O)c1cc2cc3c(cc2oc1=O)OCO3,279 to 280 °C
19,CS(=O)(=O)c1ccc(/C(=C(\CC(=O)O)C(=O)O)c2ccc(Cl)cc2)cc1,199 to 200 °C
20,CCCCNC(=O)NS(=O)(=O)c1ccccc1S(=O)(=O)OCC(F)(F)F,140 to 142 °C
21,CC(=O)C(CCS(C)(=O)=O)(CCS(C)(=O)=O)C(C)=O,162 °C
22,COc1cc(COc2cc(N)c(Cl)cc2C(=O)CCCCN2CCCCC2)cc(OC)c1,128 to 130 °C

# Other lines, results leading:
row,melting point,Structure (SMILES)
1,276 to 278 °C,COC(=O)c1cc(=O)c2oc3ccc(Cl)cc3c(=O)c2n1C
2,125 to 126 °C,COCCN1CCn2c1nc(C(=O)O)c(OCc1ccccc1)c2=O
3,117 to 120 °C,O=C(NCCC1CC1)c1ccc(N2CCN(C(=S)c3ccccc3C(F)(F)F)CC2)nn1
4,61 to 62 °C,CCOC(=O)CCC(O)c1ccc(-c2ccccc2F)cc1 (stereo not drawn)
5,99 to 100 °C,CCOC(=O)c1ccc(C(=O)OCC)c2cc3ccccc3cc12
6,220 to 223 °C,O=C1C(Cl)=C(Nc2ccc(S(=O)(=O)Nc3ccccc3)cc2)C(=O)c2ccccc21
7,197 to 201 °C,CC(c1oc2ccccc2c(=O)c1-c1cccc(F)c1)n1ncc2c(Cl)ncnc21 (stereo not drawn)
8,218 °C,CC(C)(C)OC(=O)N1CCC(OCc2ccccc2)C1CC(O)Cn1cnc2ccc(F)c(F)c2c1=O (stereo not drawn)
9,213 to 216 °C,Cc1nc(-n2c(=O)ccc3cc(OCc4ccccc4)ccc32)sc1C(=O)NCc1ccccc1
10,125 to 127 °C,FC(F)(F)c1ccc(CN2CC=C(/C=C/c3ccccc3)CC2)cc1
11,176 to 178 °C,CC(=O)N1CCc2cc(S(=O)(=O)n3c(COC(C)(C)C(=O)O)cc4cc(C(F)(F)F)ccc43)ccc21
12,227 to 229 °C,CC(C)CCn1c(=O)[nH]c2cc(Cl)cc(Cl)c2c1=O
13,82 °C,O=C(c1ccccc1)c1ccc(OCCO)cc1
14,59 to 61 °C,O=C(c1ccccc1)c1ccc(OCCCCCCCCBr)cc1
15,172 to 173 °C,O=C(O)[C@@]12C[C@@H](c3ccccc31)c1ccc(Cl)cc12
16,145 to 147 °C,O=c1c2cc(F)c(F)cc2n(CCF)c(=O)n1OCc1ccccc1
17,84 to 85 °C,CCOCCNC(=O)c1ccc(CN2C(=O)C3(COc4cc5c(cc43)CCO5)c3ccccc32)cc1 (stereo not drawn)
18,151 to 153 °C,CCOC(=O)c1cnc2c(SC(=O)N3CCN(c4ccccc4OC)CC3)cccn2c1=O
19,224 to 226 °C,CC(C)c1ccc(N2CC(=O)N(c3cccc(C(=O)O)c3)C2=O)cc1
20,172 to 175 °C,Cc1c(CO)nc2c(OCc3ccccc3)cccn12
21,119 to 121 °C,CCCCc1nn(-c2cc(NC(=O)CC)ccc2Br)c(=O)n1Cc1ccc(-c2ccccc2S(=O)(=O)NC(C)(C)C)cc1F
22,80 to 82 °C,O=S(=O)(c1ccccc1)c1c[nH]c2c(CCN3CCN(Cc4ccccc4)CC3)cccc12
23,93 to 94 °C,O=C(NCCSCc1cccc(Cl)c1)c1c(C(F)(F)F)cccc1C(F)(F)F
24,183 to 184 °C,COc1cccc(/C=C/C(=O)Nc2ccccc2C(=O)O)c1
25,203 to 205 °C,O=C1N(Cc2ncccn2)c2ccccc2C12COc1cc3c(cc12)CCO3 (stereo not drawn)
26,121 to 123 °C,O=c1c2cc(F)c(F)cc2n(CC2CC2)c(=O)n1OCc1ccccc1
27,138 to 139 °C,COc1ccc(S(=O)(=O)N2c3cc(F)ccc3-c3ccccc3C2C)cc1 (stereo not drawn)
28,96 to 100 °C,CCCCCc1c(-c2ccc3cc(O)ccc3c2)n(Cc2ccccc2)c2ccccc12
29,148 °C,CSc1ccc(-c2nn(Cc3cccnc3)c(=O)cc2-c2ccc(Cl)cc2)cc1
30,255 °C,Cc1cccc(-c2nc3c(o2)C(=O)c2ccccc2C3=O)c1
